From BigSolDB 2.1

CCCCCCC1(CCCCCC)c2cc(Br)ccc2-c2ccc(Br)cc21
solubility (mole fraction)
Settings	283.15 K	293.15 K	303.15 K	313.15 K	323.15 K
in 1,4-dioxane	–	0.0466	0.0801	0.113	0.17
in THF	0.0977	0.112	0.127	0.146	0.158
in acetonitrile	0.000305	0.000473	0.000684	0.000954	0.0012
in chloroform	0.0364	0.041	0.0483	0.0543	0.0613
in dichloromethane	0.0468	0.0633	0.0807	0.0987	0.118
in ethanol	0.00158	0.00182	0.00209	0.00233	0.00264
in ethyl acetate	0.0433	0.0613	0.0873	0.114	0.144
in isopropanol	0.000772	0.00117	0.00191	0.00293	0.00392
in methanol	0.000142	0.000189	0.000293	0.000427	0.000582
in n-butanol	0.00329	0.00586	0.00935	0.0127	0.0165
in n-hexane	0.0382	0.0578	0.0907	0.123	0.163
in toluene	0.0918	0.121	0.152	0.188	0.242
